Assay results from article PMC6858373 (Scientific Reports, 2019).
Entries after “also recorded” stand apart in the source; their conditions may differ. Like-named read-outs stand apart in the source and are kept apart here.

Experiments:
[1] = biological target: T1, FGF14:Nav1.6 C-tail complex (Homo sapiens, UniProt Q92915+Q9UQD0); assay: Split-luciferase complementation assay (LCA) in Clone V double stable HEK293 cells; format: cell-based
T1 construct: polymerase chain reaction (PCR) amplification of the FGF14 open reading frame (nt 1–855); C-terminal fragment of Nav1.6 (amino acids 1763–1976) fused with CD4ΔC-tail (amino acids 1–395); expressed in transfected cells

[2] = biological target: full-length P. pyralis luciferase (Photinus pyralis, UniProt P08659, K549A/L550V/N119G/N50D/S548I); format: cell-based
[3] = tested on: Clone V cells
[4] = CC_NCI screening, LCA luminescence, biological replicate Set 1, normalized to on-plate 0.3% DMSO controls (n=16 per plate)
[5] = CC_NCI screening, LCA luminescence, biological replicate Set 2, normalized to on-plate 0.3% DMSO controls (n=16 per plate)
[6] = CC_NCI screening, LCA, biological replicate Set 1, normalized to on-plate 0.3% DMSO controls
[7] = CC_NCI screening, LCA, biological replicate Set 2, normalized to on-plate 0.3% DMSO controls
[8] = CC_NCI screening, average of Set 1 and Set 2, normalized to 0.3% DMSO controls
[9] = CC_NCI screening, full-length luciferase counter-screen luminescence, normalized to on-plate 0.3% DMSO controls
[10] = CC_NCI screening, full-length luciferase counter-screen, normalized to on-plate 0.3% DMSO controls
[11] = CC_NCI screening, biological replicate Set 1, normalized to on-plate 0.3% DMSO controls
[12] = CC_NCI screening, biological replicate Set 2, normalized to on-plate 0.3% DMSO controls
[13] = CC_NCI screening, biological replicate Set 2, normalized to on-plate 0.3% DMSO controls (n=16 per plate)
[14] = average of Set 1 and Set 2, normalized to 0.3% DMSO controls
[15] = CC_NCI screening, normalized to on-plate 0.3% DMSO controls

T1 sequence (Q92915 1-252 isoform Q92915-2): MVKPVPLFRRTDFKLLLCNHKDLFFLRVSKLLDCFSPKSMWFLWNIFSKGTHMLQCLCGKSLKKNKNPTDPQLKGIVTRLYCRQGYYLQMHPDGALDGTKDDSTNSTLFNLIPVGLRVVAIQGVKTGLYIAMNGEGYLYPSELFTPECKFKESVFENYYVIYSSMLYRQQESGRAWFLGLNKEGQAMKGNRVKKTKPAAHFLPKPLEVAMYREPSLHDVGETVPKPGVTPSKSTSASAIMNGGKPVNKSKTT
T1 sequence (Q9UQD0 1763-1976 limits assumed): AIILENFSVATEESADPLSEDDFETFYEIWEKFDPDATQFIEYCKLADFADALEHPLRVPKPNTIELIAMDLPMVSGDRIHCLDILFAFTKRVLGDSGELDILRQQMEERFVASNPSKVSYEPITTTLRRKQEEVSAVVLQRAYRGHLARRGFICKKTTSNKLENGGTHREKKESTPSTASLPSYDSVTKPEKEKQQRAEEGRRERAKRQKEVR
full-length P. pyralis luciferase, sequence (P08659 whole entry N50D/N119G/S548I/K549A/L550V, looked up): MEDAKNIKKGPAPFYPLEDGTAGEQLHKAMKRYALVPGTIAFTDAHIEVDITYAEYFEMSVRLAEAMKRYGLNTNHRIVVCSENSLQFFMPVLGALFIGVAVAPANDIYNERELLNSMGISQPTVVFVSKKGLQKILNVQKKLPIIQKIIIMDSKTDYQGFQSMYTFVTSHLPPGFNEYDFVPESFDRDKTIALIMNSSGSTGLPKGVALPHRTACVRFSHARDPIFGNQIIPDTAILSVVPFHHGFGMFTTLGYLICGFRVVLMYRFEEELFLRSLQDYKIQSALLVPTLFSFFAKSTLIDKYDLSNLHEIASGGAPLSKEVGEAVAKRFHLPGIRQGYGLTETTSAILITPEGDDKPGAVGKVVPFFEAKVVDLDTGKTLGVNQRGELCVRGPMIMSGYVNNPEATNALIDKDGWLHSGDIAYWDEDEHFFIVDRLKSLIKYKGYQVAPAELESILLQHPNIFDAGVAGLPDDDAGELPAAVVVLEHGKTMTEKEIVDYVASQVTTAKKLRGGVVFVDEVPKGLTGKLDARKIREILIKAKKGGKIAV

| SMILES | Split Luciferase Assay % Lum Set 1 [1, 4] [%] | Split Luciferase Assay %Lum Set 2 [1, 5] [%] | Split Luciferase Assay Z-score Set 1 [1, 6] | Split Luciferase Assay Z-score Set 2 [1, 7] | Split Luciferase Assay %Lum Avg [1, 8] [%] | Luciferase Assay % Lum [2, 9] [%] | Luciferase Assay Z-score [2, 10] | Toxicity Assay % Fluor [3] [%] | Toxicity Assay Z-score [3] | Toxicity Assay % Fluor ([3]; human, 16 h, 30 µM) [%] | Toxicity Assay Z-score ([3]; human, 16 h, 30 µM) | further results |
| --- | --- | --- | --- | --- | --- | --- | --- | --- | --- | --- | --- | --- |
| O=C(Nc1cccc(Nc2ncc(Br)c(NCCc3cnc[nH]3)n2)c1)N1CCCC1 [BX 912, reference compound] | 35.11 | 40.57 | -5.24 | -4.84 | 37.84 | 85.82 | -1.82 | 106.22 | 0.87 | – | – | Z-score (LCA primary screening) ([1]; 30 µM, 384-well, average of primary screening (n = 2), vs on-plate 0.3% DMSO): −5.04; dose-response behavior of repurchased compounds ([1]; 10-point dose response 0.25-50 µM, Clone V cells): counter acting activity as a function of dosage; also recorded: act as enhancers at lower concentrations; IMin (% Luminescence) ([1]; antagonists, Clone V cells, 384-well, normalized to DMSO): 37.84 % Luminescence; action toward the FGF14:Nav1.6 C-tail interaction ([1]; dose-dependency validation using fresh compound samples): acted as antagonists; IC50 ([1]; estimated, 8-point dose response 0.25-30 µM, n = 4 per concentration, library compounds, read-out: IC50): 9.23 µM; IC50 ([1]; repurchased compounds, 10-point dose response 0.25-50 µM, n = 8 per concentration, Clone V cells, 384-well, read-out: in-cell IC50): 6.8 µM |
| Cl.Cn1c(CCCC(=O)O)nc2cc(N(CCCl)CCCl)ccc21 [Bendamustine hydrochloride] | 111.21 | 127.96 | 0.91 | 2.27 | 119.58 | 101.61 | 0.21 | 87.62 | -1.73 | – | – | – |
| CC(C)C[C@H](NC(=O)[C@H](Cc1ccccc1)NC(=O)c1cnccn1)B(O)O [Bortezomib] | 89.47 | 117.56 | -0.85 | 1.43 | 103.51 | 83.42 | -2.12 | 93.30 | -0.94 | – | – | – |
| COc1cc(Nc2c(C#N)cnc3cc(OCCCN4CCN(C)CC4)c(OC)cc23)c(Cl)cc1Cl [Bosutinib] | 10.11 | 17.69 | -7.26 | -6.70 | 13.90 | 70.20 | -3.82 | 75.29 | -3.45 | – | – | – |
| Cc1cc2c(F)c(Oc3ncnn4cc(OC[C@@H](C)O)c(C)c34)ccc2[nH]1 [Brivanib] | 34.03 | 35.37 | -5.33 | -5.26 | 34.70 | 64.23 | -4.58 | – | – | 92.51 | -1.05 | – |
| C=CC(=O)Nc1cc2c(Nc3ccc(F)c(Cl)c3)ncnc2cc1OCCCN1CCOCC1 [CANERTINIB] | 28.59 | 34.33 | -5.77 | -5.34 | 31.46 | 50.65 | -6.32 | – | – | 84.09 | -2.22 | – |
| COc1cc2c(Oc3ccc4[nH]c(C)cc4c3F)ncnc2cc1OCCCN1CCCC1 [CEDIRANIB] | 69.90 | 57.22 | -2.43 | -3.48 | 63.56 | 80.88 | -2.45 | – | – | 86.10 | -1.94 | – |
| CN1CCN(c2ccc3nc(-c4c(N)c5c(F)cccc5[nH]c4=O)[nH]c3c2)CC1 [CHIR 258] | 66.64 | 66.58 | -2.70 | -2.72 | 66.61 | 93.31 | -0.86 | – | – | 81.15 | -2.64 | – |
| c1cc(-c2cnn3cc(-c4ccc(OCCN5CCCCC5)cc4)cnc23)ccn1 [COMPOUND C] | – | – | – | – | – | – | – | – | – | – | – | Split Luciferase Assay Z-score Set 1 [1, 11]: 3.01; Split Luciferase Assay Z-score Set 2 [1, 12]: 1.26; Split Luciferase Assay %Lum Set 2 [1, 13]: 115.47%; Split Luciferase Assay %Lum Avg [1, 14]: 126.39%; Luciferase Assay % Lum (full-length luciferase counter-screen) [2, 15]: 104.57%; Luciferase Assay Z-score (full-length luciferase counter-screen) [2, 15]: 0.59; Toxicity Assay % Fluor (CTB cell viability fluorescence) [3]: 115.42%; Toxicity Assay Z-score (CTB cell viability) [3]: 2.16 |
| CC1=C2C[C@H]3[C@@H](CC=C4C[C@@H](O)CC[C@@]43C)[C@@H]2CC[C@]12O[C@@H]1C[C@H](C)CN[C@H]1[C@H]2C [CYCLOPAMINE] | – | – | – | – | – | – | – | – | – | – | – | Split Luciferase Assay % Lum Set 1 [1]: 141.65%; Split Luciferase Assay %Lum Avg [1]: 122.84%; Split Luciferase Assay %Lum Set 2 [1]: 104.03%; Split Luciferase Assay Z-score Set 1 [1]: 3.37; Split Luciferase Assay Z-score Set 2 [1]: 0.33; Luciferase Assay Z-score [2]: 0.81; Toxicity Assay % Fluor ([3]; human): 85.59%; Toxicity Assay Z-score ([3]; human): -2.01 |
| COc1cc2nccc(Oc3ccc(NC(=O)C4(C(=O)Nc5ccc(F)cc5)CC4)cc3)c2cc1OC [Cabozantinib] | 27.50 | 27.05 | -5.86 | -5.94 | 27.28 | 67.75 | -4.13 | – | – | 93.87 | -0.86 | – |
| N.N.O=C([O-])C1(C(=O)[O-])CCC1.[Pt+2] [Carboplatin] | – | – | – | – | – | – | – | – | – | – | – | Split Luciferase Assay Z-score Set 1 [1, 11]: 0.82; Split Luciferase Assay % Lum Set 1 ([1]; CC_NCI screening, biological replicate Set 1, normalized to on-plate 0.3% DMSO controls (n=16 per plate)): 110.12%; Split Luciferase Assay Z-score Set 2 [1, 12]: 1.17; Split Luciferase Assay %Lum Set 2 [1, 13]: 114.43%; Split Luciferase Assay %Lum Avg [1, 14]: 112.28%; Luciferase Assay % Lum (full-length luciferase counter-screen) [2, 15]: 96.43%; Luciferase Assay Z-score (full-length luciferase counter-screen) [2, 15]: -0.46; Toxicity Assay % Fluor (CTB cell viability fluorescence) [3]: 109.23%; Toxicity Assay Z-score (CTB cell viability) [3]: 1.29 |
| Cc1ccc(-c2cc(C(F)(F)F)nn2-c2ccc(S(N)(=O)=O)cc2)cc1 [Celecoxib] | 43.81 | 44.73 | -4.54 | -4.50 | 44.27 | 60.07 | -5.11 | – | – | 88.16 | -1.66 | – |
| Nc1nc(Cl)nc2c1ncn2[C@@H]1O[C@H](CO)[C@@H](O)[C@@H]1F [Clofarabine] | 146.00 | 131.08 | 3.72 | 2.53 | 138.54 | – | – | – | – | 94.15 | -0.82 | Luciferase Assay % Lum [2]: 100.89%; Luciferase Assay Z-score [2]: 0.11 |
| OCC1OC(O)CC(O)C1O (stereo not shown) [Compound 2DG] | 104.69 | 130.04 | 0.38 | 2.44 | 117.36 | 91.76 | -1.06 | 93.82 | -0.86 | – | – | – |
| C=CCNC1=C2C[C@@H](C)C[C@H](OC)[C@H](O)[C@@H](C)/C=C(\C)[C@H](OC(N)=O)[C@@H](OC)/C=C\C=C(/C)C(=O)NC(=CC1=O)C2=O [Compound 17-AAG] | 45.98 | 41.61 | -4.37 | -4.75 | 43.80 | 80.45 | -2.50 | 88.49 | -1.61 | – | – | – |
| CO[C@H]1/C=C\C=C(/C)C(=O)NC2=CC(=O)C(NCCN(C)C)=C(C[C@@H](C)C[C@H](OC)[C@H](O)[C@@H](C)/C=C(\C)[C@@H]1OC(N)=O)C2=O [Compound 17-DMAG] | 40.55 | 65.54 | -4.80 | -2.80 | 53.04 | 84.54 | -1.98 | 54.29 | -6.39 | – | – | – |
